Reference: patent publication US8808715B1, “Methods and compositions for modulating keratinocyte function” (Georgia Regents Research Institute, Inc, priority 2004, dated 2014)

Legend:
PLD-2 = biological target: T1, PLD-2 (Homo sapiens, UniProt O14939); experiment: In vitro assay of phosphatidylglycerol formation by PLD-2 (transphosphatidylation); type: biochemical
T1 construct: purchased Onyx Pharmaceuticals; host or cells: Sf9 insect cells (membrane preparation)
Procedure: FIGS. 5 A and B illustrate that glycerol serves as a substrate for phospholipase D in the transphosphatidylation reaction in vitro. Liposomes were prepared from [^3H-dipalmitoyl]phosphatidylcholine, phosphatidylethanolamine, phosphatidylcholine and phosphatidylinositol 4,5-bisphosphate by sonication. Glycerol at the indicated concentrations in the absence (A) or presence of 1% ethanol (B) was added to the reaction mix. Reactions were initiated by the addition of Sf9 PLD2-overexpressing membranes (1 μg protein), incubated for 30 minutes at 37° C. and terminated by the addition of 0.2% SDS (±5 mM EDTA). Lipids were extracted, separated, and quantified. The figure is representative of at least two additional experiments. There was some variability in the absolute levels of phosphatidic acid (PA), PG and phosphatidylethanol (PEt) formed, likely due to variations in the extent of formation of multilamellar vesicles during sonication.
PLD-2 activity was measured in vitro with [^3H-palmitoyl]phosphatidylcholine as substrate. […] Lipids were extracted according to the method of Bligh and Dyer and radiolabeled phospholipids separated and quantified, as described in W. B. Bollag, “Measurement of phospholipase D activity, Methods” Mol. Biol. 105 (1998) 151-160, incorporated herein by reference.

keratin 5 promoter = experiment: Co-transfection analysis, keratin 5 promoter-luciferase reporter; type: cell-based, mouse; conditions: glycerol 0.2%, 24 hours
Procedure: FIGS. 15A-B illustrate that glycerol, but not xylitol or sorbitol, inhibits DNA synthesis and enhances the inhibitory effect of an elevated extracellular Ca^2+ concentration. (A) Near-confluent keratinocytes were incubated for 24 hours with 0.02 or 0.1% glycerol and DNA synthesis measured as the incorporation of [^3H] thymidine incorporation into DNA. (B) Near-confluent keratinocytes were incubated for 24 hours with the indicated concentrations of glycerol (G, squares) or equivalent concentrations of xylitol (X, circles) in SFKM containing 25 μM (control; open symbols) or 125 μM Ca^2+ (Ca^2+; closed symbols). (C) Near-confluent keratinocytes were incubated for 24 hours with the indicated concentrations of glycerol (G) or equivalent concentrations of sorbitol (S, triangles) in SFKM containing 25 μM (control; open symbols) or 125 μM Ca^2+ (Ca^2+; closed symbols) for 24 hours. [^3H]Thymidine incorporation into DNA was then determined. Values represent the means±SEM of 4 to 5 separate experiments performed in duplicate; *p<0.05, **p<0.01 versus the control value, †p<0.05 versus the value in the presence of Ca^2+ alone. […] After 24 hours cells were refed with medium containing no addition (control) or 0.2% glycerol for an additional 24 hours. Luciferase activity was then measured using a Dual Luciferase kit as directed by the manufacturer. […] The blots were quantified using the Kodak molecular imaging software. […]
The keratin 5 and keratin 10 promoter-luciferase constructs were provided by of Dr. Bogi Andersen (University of California, Irvine, Calif.); the involucrin promoter-luciferase construct was provided by Dr. Daniel Bikle (University of California, San Francisco, Calif.). […] Luciferase activity was then measured using the Dual Luciferase Reporter Assay kit (Promega, Madison, Wis.) as directed by the manufacturer.

[1] = system: rapidly dividing keratinocytes; experiment: Assay of DNA synthesis ([3H]thymidine incorporation) in rapidly dividing keratinocytes; type: cell-based; conditions: 24 hours
Procedure: Keratinocytes were prepared from ICR CD-I outbred mice in accordance with a protocol approved by the Institutional Animal Care and Use Committee. Briefly, the skins were harvested and incubated overnight in 0.25% trypsin at 4° C. The epidermis and dermis were separated and basal keratinocytes scraped from the underside of the epidermis. The cells were collected by centrifugation and incubated overnight in an atmosphere of 95% air/5% carbon dioxide at 37° C. in plating medium as described in Dodd M E, Ristich V L, Ray S, Lober R M, Bollag W B (2005) Regulation of protein kinase D during differentiation and proliferation of primary mouse keratinocytes. J Invest Dermatol 125:294-306, incorporated herein by reference. The plating medium was replaced with serum-free keratinocyte medium (SFKM) also as in Dodd, et al., and the cells were refed every 1-2 days with fresh medium until use.
[^3H]Thymidine incorporation into DNA was determined as a measure of DNA synthesis as previously described by Griner, et al., above. Near-confluent keratinocyte cultures were incubated for 24 hours in SFKM containing the indicated additions. PG was added in the form of liposomes prepared by bath sonication of dried PG in SFKM to make a stock solution of 2 mg/mL. [^3H]Thymidine at a final concentration of 1 μCi/mL was then added to the cells for an additional 1-hour incubation. Reactions were terminated by washing with PBS- and macromolecules precipitated with ice-cold 5% trichloroacetic acid. Cells were solubilized in 0.3 M NaOH and the radioactivity incorporated into DNA quantified by liquid scintillation spectroscopy.
[^3H]Thymidine incorporation was used as a measure of DNA synthesis and was performed as described in Example 2. Liposomes containing PG and functional derivatives thereof were prepared by bath sonication as described in Example 2, with the exception that different concentrations of material were employed.

ICR CD1 mice = experiment: Wound healing of full-thickness skin punch biopsies; type: in vivo, mouse; conditions: topical; 2M glycerol in water, or 100 μg/mL phosphatidylglycerol liposomes in PBS-
Text: This example presents recent data on the effects of glycerol and phosphatidylglycerol treatment on wound healing obtained in ICR CD1 mice. Two full-thickness skin punch biopsies of˜4 mm were made on the backs of a total of sixteen mice. […] The rate of wound healing was then followed over four days by digital photography and computer image analysis.

AQP3 null mutant mouse = conditions: studies of the AQP3 null mutant mouse; cited from earlier work
[2] = system: primary epidermal keratinocytes; experiment: Radiolabeled phosphatidylglycerol formation in intact keratinocytes; type: cell-based, mouse; conditions: 100 nM PMA, 30 minutes with [3H]glycerol; p<0.01
Procedure: Primary epidermal keratinocytes were prepared from 1-3-day old neonatal ICR mice after trypsin flotation of the skin and mechanical separation of the epidermis from the dermis. The epidermal cells were released by scraping, collected by centrifugation and plated in 6-well dishes in a medium consisting of MEM containing 25 μM calcium, 2% dialyzed fetal bovine serum, 2 mM glutamine, 5 ng/mL EGF, ITS (6.25 μg/mL insulin+6.25 μg/mL transferrin+6.25 ng/mL selenious acid+5.35 μg/mL linoleic acid+1.25% bovine serum albumin), 100 U/mL penicillin, 100 μg/mL streptomycin and 0.25 μg/mL fungizone. After an overnight incubation, the cells were refed with serum-free keratinocyte medium (SFKM), in which 2% dialyzed fetal bovine serum was replaced with 90 μg/mL bovine pituitary extract. Cells were refed with fresh medium every 1-3 days.
For the PLD assay cultured primary keratinocytes were labeled for 20-24 hours with 2.5 μCi/ml [^3H] oleic acid. The cells were then exposed to vehicle or 100 nM PMA in the presence of 0.5% ethanol for 30 minutes. To measure the formation of radiolabeled phosphatidylglycerol, cells were treated for 24 hours with SFKM containing vehicle, 250 nM 1,25-dihydroxyvitamin D3 or 125 μM calcium and then labeled for an additional 30 minutes with 1-2.5 μCi/mL [^3H] or 0.4-0.5 μCi/mL [^14C]glycerol. For experiments investigating the extracellular calcium dependence of PG formation, cells were incubated for 24 hours in SFKM containing various calcium concentrations prior to the addition of 5 μCi/mL [^3H]glycerol for 30 minutes. In some cases, cells were stimulated with 25 μM calcium (control)—or 125 μM calcium-containing SFKM for 24 hours prior to the addition of [^14C]glycerol in the presence and absence of 1% ethanol. To measure phosphatidylglycerol formation in response to PMA, unlabeled cells were stimulated with 100 nM PMA in the presence of radiolabeled glycerol, as above. Reactions were terminated and the radiolabeled phosphatidylalcohol extracted, separated by thin-layer chromatography and quantified as described by Bollag (1998), referenced above.

PLD = PLD activity (radiolabeled phosphatidylethanol formation in [3H]oleate-prelabeled keratinocytes); type: cell-based, mouse; conditions: 100 nM PMA, 30 minutes, 0.5% ethanol; p<0.02
Procedure: Near-confluent keratinocytes were incubated without radiolabel (for phosphatidylglycerol production) or pre-labeled with 2.5 μCi/mL [^3H]oleate (for phosphatidylethanol formation) for 20-24 hours. The cells were then stimulated for 30 minutes with vehicle (0.05-0.1% DMSO; Con) or 100 nM PMA in the presence of [^3H]glycerol (for phosphatidylglycerol production), or in the presence of 0.5% ethanol (for phosphatidylethanol formation). Reactions were terminated by the addition of 0.2% SDS (±5 mM EDTA) and radiolabeled phosphatidylglycerol (PG), or phosphatidylethanol (PEt) was extracted, separated by thin-layer chromatography and quantified. Values are expressed as -fold over control and represent the means±SEM of three separate experiments performed in duplicate or triplicate; *p<0.02 versus the appropriate control by an unpaired Student's t-test.
For the PLD assay cultured primary keratinocytes were labeled for 20-24 hours with 2.5 μCi/ml [^3H] oleic acid. The cells were then exposed to vehicle or 100 nM PMA in the presence of 0.5% ethanol for 30 minutes. […] Reactions were terminated and the radiolabeled phosphatidylalcohol extracted, separated by thin-layer chromatography and quantified as described by Bollag (1998), referenced above.

primary keratinocytes = experiment: [3H]Glycerol uptake; type: cell-based, mouse; conditions: 30 minutes pretreatment with 100 nM PMA, then [3H]glycerol 5 minutes
Procedure: Confluent primary keratinocytes were incubated for 30, 60, 90, 120, 300 or 600 seconds with SFKM containing 20 mM HEPES (for additional pH buffering), 1 μCi/mL [^3H]glycerol and 0.1% DMSO (control) or 100 nM PMA. Reactions were terminated by washing three times with ice-cold phosphate-buffered saline lacking divalent cations. The cells were subsequently solubilized in 0.3 M NaOH and aliquots of this extract subjected to liquid scintillation counting. Counts obtained from duplicate samples at each time point were averaged and graphed, and a linear equation was determined for each condition. Correlation coefficients obtained were typically 0.99 or greater (mean correlation coefficient for control was 0.992±0.002 and for PMA, 0.994±0.001). Slopes obtained from multiple experiments were averaged and analyzed statistically for significant differences between conditions.
The linearity of glycerol uptake determined above allowed measurement of uptake at a single time point to determine the effects of other treatments on this process. Thus, confluent keratinocytes were preincubated for 30 minutes with 0.1% DMSO (control) or 100 nM PMA prior to measuring [^3H]glycerol uptake as above but at 5 minutes only. Similarly, near-confluent primary keratinocytes were incubated for 24 hours with SFKM containing various calcium concentrations prior to measurement of radiolabeled glycerol uptake for 5 minutes.
Near-confluent keratinocyte cultures were incubated for 24 hours in SFKM (25 μM calcium) or SFKM containing 125 μM calcium (125 μM Ca^2+-SFKM) and the glycerol uptake assay performed as previously described in Zheng & Bollag (2003). Briefly, cells were incubated with SFKM containing 20 mM HEPES (for additional pH buffering) and 1 μCi/mL [^3H] glycerol for 5 minutes, since it has previously been shown that this time point is in the linear range of [^3H]glycerol uptake (Zheng & Bollag (2003). Reactions were terminated by rapidly washing three times with ice-cold phosphate-buffered saline lacking divalent cations (PBS-). Cells were then solubilized in 0.3 M NaOH and [^3H]glycerol uptake quantified by liquid scintillation spectroscopy.

T1 sequence (O14939 whole entry, species assumed): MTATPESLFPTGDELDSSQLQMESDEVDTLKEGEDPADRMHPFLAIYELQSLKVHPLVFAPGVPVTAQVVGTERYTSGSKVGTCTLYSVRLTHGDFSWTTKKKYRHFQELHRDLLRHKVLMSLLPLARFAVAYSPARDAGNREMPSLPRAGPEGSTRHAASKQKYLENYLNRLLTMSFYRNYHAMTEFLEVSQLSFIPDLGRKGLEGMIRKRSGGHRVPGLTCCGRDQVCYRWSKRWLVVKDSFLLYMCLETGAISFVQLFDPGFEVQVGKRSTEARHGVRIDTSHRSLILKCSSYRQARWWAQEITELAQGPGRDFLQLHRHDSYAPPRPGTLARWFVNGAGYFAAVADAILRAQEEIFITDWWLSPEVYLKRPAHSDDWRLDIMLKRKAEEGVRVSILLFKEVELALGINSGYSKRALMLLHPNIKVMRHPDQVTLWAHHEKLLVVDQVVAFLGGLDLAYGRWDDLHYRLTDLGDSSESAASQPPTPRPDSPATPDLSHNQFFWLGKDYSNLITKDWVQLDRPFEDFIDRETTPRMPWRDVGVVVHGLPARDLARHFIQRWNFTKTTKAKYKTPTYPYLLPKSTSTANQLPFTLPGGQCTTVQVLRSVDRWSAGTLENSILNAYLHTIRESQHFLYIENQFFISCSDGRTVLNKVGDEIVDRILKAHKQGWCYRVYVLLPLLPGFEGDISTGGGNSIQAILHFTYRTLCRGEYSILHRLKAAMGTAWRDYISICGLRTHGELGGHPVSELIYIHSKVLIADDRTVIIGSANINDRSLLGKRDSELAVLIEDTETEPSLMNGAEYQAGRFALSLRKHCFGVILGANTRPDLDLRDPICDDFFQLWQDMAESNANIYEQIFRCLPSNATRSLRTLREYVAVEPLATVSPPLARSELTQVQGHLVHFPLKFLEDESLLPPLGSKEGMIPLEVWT

Compound	formation of PG from phosphatidylcholine (glycerol as substrate for transphosphatidylation) (PLD-2; PLD2-overexpressing Sf9 membranes, 30 minutes at 37° C.)	competition with ethanol in the transphosphatidylation reaction (PLD-2; in presence of 1% ethanol)	reduction in keratin 5 promoter activity (keratin 5 promoter; empty vector) [%]	reduction in keratin 5 promoter activity (keratin 5 promoter; keratinocytes transfected with AQP3) [%]	effect on DNA synthesis in presence of 125 μM Ca2+ ([1]; 125 μM Ca2+ medium)	effect on DNA synthesis ([3H]thymidine incorporation into DNA) ([1]; control (25 μM Ca2+) medium)	lowest concentration that significantly inhibited DNA synthesis ([1]; 0.02% = 2.73 mM) [%]	rate of wound healing (percentage on day 4 relative to day 1) (ICR CD1 mice)	correction of the epidermal phenotype of the knockout model (AQP3 null mutant mouse)	PG production [2]	PLD activity (radiolabeled phosphatidylethanol formation) (PLD)	glycerol uptake (primary keratinocytes)
OCC(O)CO [glycerol]	PLD2 catalyzed the formation of PG from phosphatidylcholine in the presence of glycerol	could compete with the primary alcohol ethanol to generate PG in place of phosphatidylethanol	~9	~47	enhanced the inhibitory effect of 125 μM Ca^2+	inhibited DNA synthesis	0.02	improved the rate of wound healing	could correct the epidermal phenotype			
CCCCCCCCCCCCCC(=O)O[C@@H]1[C@@H](C)[C@@]2(O)[C@@H](C=C(CO)C[C@]3(O)C(=O)C(C)=C[C@@H]23)[C@@H]2C(C)(C)[C@]12OC(C)=O [PMA, Phorbol 12-myristate 13-acetate]										decrease in PG production	large increase in PLD activity	decrease in glycerol uptake
